According to PubChem BioAssay (NCI):
Several values for one entry are separate records, joined by “and”; a condition that tells them apart may be missing. Equal values may be shown once.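 Five compound concentrations were applied to cells in 96-well plates for 48 hours; endpoints were derived by simple linear interpolation of the resulting dose-response curve. Here, GI50 denotes the concentration required for 50% inhibition of growth. TGI is the concentration that stops growth completely.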

How the values were obtained:
Assay in all cases: NCI tumour cell line growth inhibition, 48 h
COLO 205 colon = tested on: COLO 205 colon
T-47D breast = tested on: T-47D breast
KM12 colon = tested on: KM12 colon
SF-268 CNS = tested on: SF-268 CNS
TK-10 renal = tested on: TK-10 renal
MCF7 breast = tested on: MCF7 breast
HOP-62 NSCLC = tested on: HOP-62 NSCLC
CCRF-CEM leukemia = tested on: CCRF-CEM leukemia
LOX IMVI melanoma = tested on: LOX IMVI melanoma
HS 578T breast = tested on: HS 578T breast

Compound	TGI (COLO 205 colon)	TGI (T-47D breast)	TGI (KM12 colon)	TGI (SF-268 CNS)	TGI (TK-10 renal)	TGI (MCF7 breast)	TGI (HOP-62 NSCLC)	TGI (CCRF-CEM leukemia)	TGI (LOX IMVI melanoma)	TGI (HS 578T breast)	GI50 (COLO 205 colon)	GI50 (T-47D breast)	GI50 (KM12 colon)	GI50 (SF-268 CNS)	GI50 (TK-10 renal)	GI50 (MCF7 breast)	GI50 (HOP-62 NSCLC)	GI50 (CCRF-CEM leukemia)	GI50 (LOX IMVI melanoma)	GI50 (HS 578T breast)
COc1ccc(CNC(C)C(=O)O)cc1 (configuration not stated)	> 100 µM	> 100 µM	> 100 µM	> 100 µM	> 100 µM	> 100 µM	> 100 µM	65.5 µM	> 100 µM	> 100 µM	–	–	–	–	–	–	–	–	–	–
Cc1cc2nc3ccc(=[N+](C)C)cc-3sc2cc1N	2.19 µM and 9.28 µM and 0.94 µM	4.52 µM and 28.8 µM and 6.75 µM	2.28 µM and 18.1 µM and 2.95 µM	–	7.01 µM and 36.8 µM and 8.19 µM	1.87 µM and 6.05 µM and 2.79 µM	3.2 µM and 28.9 µM and 5.72 µM	–	1.37 µM and 8.39 µM and 1.4 µM	–	0.745 µM and 0.309 µM	0.475 µM and 0.722 µM	0.401 µM and 0.771 µM	0.351 µM and 0.956 µM	2.65 µM and 2.75 µM	0.326 µM and 0.405 µM	1.04 µM and 1.55 µM	0.279 µM and 0.31 µM	0.27 µM and 0.301 µM	1.49 µM and 0.311 µM
COC(C(=O)C(O)C(C)O)C1Cc2cc3cc(OC4CC(OC5CC(O)C(O)C(C)O5)C(O)C(C)O4)c(C)c(O)c3c(O)c2C(=O)C1OC1CC(OC2CC(O)C(OC3CC(C)(O)C(O)C(C)O3)C(C)O2)C(O)C(C)O1 (configuration not stated)	–	15800 ng/mL	42.8 ng/mL and 72.3 ng/mL	–	–	730 ng/mL	–	–	15000 ng/mL	134 ng/mL	11.2 ng/mL and 0.702 ng/mL	17.5 ng/mL	11.2 ng/mL and 0.667 ng/mL	16.7 ng/mL and 1.13 ng/mL	25.2 ng/mL and 295 ng/mL	0.53 ng/mL	11.2 ng/mL and 0.0327 ng/mL	11.2 ng/mL and 0.853 ng/mL	2.17 ng/mL	16.4 ng/mL
N#Cc1ccsc1NC(=O)COC(=O)c1cccc(S(=O)(=O)N2CCc3ccccc32)c1	> 100 µM	> 100 µM	> 100 µM	> 100 µM	> 100 µM	> 100 µM	> 100 µM	> 100 µM	> 100 µM	> 100 µM	27.5 µM	37.5 µM	38.6 µM	13.4 µM	> 100 µM	19.8 µM	22 µM	14.5 µM	7.69 µM	> 100 µM
CC(C)=CCC1=C(OCC(=O)O)C(=O)c2ccccc2C1=O	> 100 µM	> 100 µM	> 100 µM	65 µM	> 100 µM	96.3 µM	> 100 µM	54.7 µM	> 100 µM	62.6 µM	–	–	–	–	–	–	–	–	–	–
CCN(Cc1ccccc1Cl)c1ccc(CO)c(Cl)c1	16.3 µM	0.522 µM	28.7 µM	30 µM	0.257 µM	12.1 µM	16.1 µM	38.3 µM	30.5 µM	38.7 µM	5.72 µM	0.06 µM	13.4 µM	15.5 µM	< 0.0334 µM	0.442 µM	2.46 µM	16.6 µM	16 µM	16 µM
Clc1cc2c(nn1)Nc1ccccc1S2	> 100 µM	> 100 µM	> 100 µM	> 100 µM	> 100 µM	> 100 µM	> 100 µM	> 100 µM	> 100 µM	> 100 µM	> 100 µM	> 100 µM	> 100 µM	> 100 µM	> 100 µM	> 100 µM	> 100 µM	> 100 µM	> 100 µM	38.4 µM
